# From patent publication US9540314B2, “N-cycloalkyl-N-[(cycloalkenylphenyl)methylene]-(thio) carboxamide derivatives” (BAYER INTELLECTUAL PROPERTY GMBH, priority 2012, dated 2017)
# Legend:
# [1] = tested on: Alternaria solani; test: In vivo preventive test on Alternaria solani (tomato); settings: 100 ppm, evaluated 3 days after inoculation
# Procedure: Solvent: 24.5 parts by weight of acetone
# • 24.5 parts by weight of N,N-dimethylacetamide Emulsifier: 1 part by weight of alkylarylpolyglycol ether
# (§1) To produce a suitable preparation of active compound, 1 part by weight of active compound is mixed with the stated amounts of solvent and emulsifier, and the concentrate is diluted with water to the desired concentration.
# (§2) To test for preventive activity, young plants are sprayed with the preparation of active compound at the stated rate of application. After the spray coating has dried on, the plants are inoculated with an aqueous spore suspension of Alternaria solani. The plants are then placed in an incubation cabinet at approximately 20° C. and a relative atmospheric humidity of 100%.
# The test is evaluated 3 days after the inoculation. 0% means an efficacy which corresponds to that of the untreated control while an efficacy of 100% means that no disease is observed.
# Under these conditions, high (at least 90%) protection is observed at a dose of 100 ppm of active ingredient with the following compound from table B: […]
# [2] = tested on: Sphaerotheca fuliginea; test: In vivo preventive test on Sphaerotheca fuliginea (powdery mildew on cucurbits); settings: 500 ppm, gherkin plants, grading 12 days after contamination
# Procedure: The active ingredients tested are prepared by homogenization in a mixture of acetone/tween/DMSO and then diluted with water to obtain the desired active material concentration.
# Gherkin plants (“Vert petit de Paris” variety), sown in starter cups on a 50/50 peat soil-pozzolana substrate and grown at 24° C., are treated at the Z11 cotyledon stage by spraying with the active ingredient prepared as described above. Plants, used as controls, are treated with the mixture of acetone/tween/DMSO/water not containing the active material.
# After 24 hours, the plants are contaminated by spraying the cotyledons with an aqueous suspension of Sphaerotheca fuliginea spores (100 000 spores per mL). The spores are collected from infected plants. The contaminated gherkin plants are incubated at about 20° C. and at 70-80% relative humidity.
# Grading (% of efficacy) is carried out 12 days after the contamination, in comparison with the control plants.
# Under these conditions, good (at least 70%) to total protection is observed at a dose of 500 ppm of active ingredient with the following compounds from table A: […]
# [3] = tested on: Puccinia recondita; test: In vivo preventive test on Puccinia recondita (brown rust on wheat); settings: 500 ppm of active ingredient; wheat plants, preventive spray; grading 12 days after contamination
# In short: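 Wheat ("Scipion") at the 1-leaf stage was sprayed with compound in acetone/tween/DMSO/water, then inoculated 24 h later with Puccinia recondita spores (100 000 spores per mL). Plants were held 24 h at 20° C and 100% RH, then 10 days at 20° C and 70-80% RH. Efficacy (%) was graded 12 days post-inoculation against solvent-treated controls.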
# [4] = tested on: Septoria tritici; test: In vivo preventive test on Septoria tritici (wheat); settings: 500 ppm of active ingredient; wheat plants, preventive spray; grading 24 days after contamination
# Procedure: (§3) The active ingredients tested are prepared by homogenization in a mixture of acetone/tween/DMSO, and then diluted with water to obtain the desired active material concentration.
# Wheat plants (“Scipion” variety), sown in starter cups on a 50/50 peat soil pozzolana substrate and grown at 22° C., are treated at the 1 leaf stage (10 cm height) by spraying with the active ingredient prepared as described above. Plants, used as controls, are treated with the mixture of acetone/tween/DMSO/water not containing the active material.
# After 24 hours, the plants are contaminated by spraying the leaves with an aqueous suspension of cryopreserved Septoria tritici spores (500 000 spores per mL). The contaminated wheat plants are incubated for 72 hours at 18° C. and at 100% relative humidity, and then for 21 days at 90% relative humidity.
# Grading (% of efficacy) is carried out 24 days after the contamination, in comparison with the control plants.
# Under these conditions, good (at least 70%) to total protection is observed at a dose of 500 ppm of active ingredient with the following compounds from table J: […]
# [5] = tested on: Botrytis cinerea; test: In vivo preventive test on Botrytis cinerea (beans)
# Procedure: as §1
# To test for preventive activity, young plants are sprayed with the preparation of active compound. After the spray coating has dried on, 2 small pieces of agar covered with growth of Botrytis cinerea are placed on each leaf. The inoculated plants are placed in a darkened chamber at 20° C. and a relative atmospheric humidity of 100%.
# 2 days after the inoculation, the size of the lesions on the leaves is evaluated. 0% means an efficacy which corresponds to that of the untreated control, while an efficacy of 100% means that no disease is observed.
# Under these conditions, excellent (at least 95%) protection is observed at a dose of 100 ppm of active ingredient with the following compound from table E1: […]
# [6] = tested on: Alternaria brassicae; test: In vivo preventive test on Alternaria brassicae (leaf spot on radish); settings: Table C1, 500 ppm, radish plants, grading 6 days after contamination
# Procedure: as §3
# Radish plants (“Pernod Clair” variety), sown in starter cups on a 50/50 peat soil pozzolana substrate and grown at 17° C., are treated at the cotyledon stage by spraying with the active ingredient prepared as described above. Plants, used as controls, are treated with the mixture of acetone/tween/DMSO/water not containing the active material.
# After 24 hours, the plants are contaminated by spraying the cotyledons with an aqueous suspension of Alternaria brassicae spores (50 000 spores per mL). The spores are collected from a 15-day-old culture.
# The contaminated radish plants are incubated at 20° C. and at 100% relative humidity.
# Grading (% of efficacy) is carried out 6 days after the contamination, in comparison with the control plants.
# Under these conditions, high (at least 80%) to excellent (at least 90%) protection is observed at a dose of 500 ppm of active ingredient with the following compounds from table C1: […]
# [7] = tested on: Venturia inaequalis; test: In vivo preventive test on Venturia inaequalis (apples); settings: 100 ppm, evaluated 10 days after inoculation
# Procedure: as §1
# as §2, with “conidia” for “spore”, “the causal agent of apple scab (Venturia inaequalis) and” for “Alternaria solani. The plants are”, “remain for 1 day” for “placed”
# The plants are then placed in a greenhouse at approximately 21° C. and a relative atmospheric humidity of approximately 90%.
# The test is evaluated 10 days after the inoculation. 0% means an efficacy which corresponds to that of the untreated control, while an efficacy of 100% means that no disease is observed.
# Under these conditions, excellent (at least 95%) protection is observed at a dose of 100 ppm of active ingredient with the following compound from table D: […]
compound,measurement,setting,value
Cc1nn(C)c(F)c1C(=O)N(C1CC1)C(C)c1ccccc1C1=CCCC1 (racemic) [I.1],Efficacy,[1],94%
same,Efficacy,[2],100%
same,Efficacy,[3],81%
same,Efficacy,[4],97%
same,Efficacy,"[5]; Table E1, 100 ppm, lesion size 2 days after inoculation",98%
same,Efficacy,"[5]; Table E2, dose 100 ppm, 2 days after inoculation",98%
same,Efficacy,"[5]; Table E2, dose 100 ppm, 2 days after inoculation, listed as 1.1",at least 95%
same,Efficacy,"[5]; Table E2, dose 250 ppm, 2 days after inoculation",98%
same,Efficacy,"[5]; Table E2, dose 250 ppm, 2 days after inoculation, listed as 1.1",at least 95%
same,Efficacy,[6],98%
same,Efficacy,[7],98%
